This passage reports TGI and GI50 results from PubChem BioAssay (NCI).

Molecules are shown by their SMILES. Where “and” joins values, the source holds several entries; their conditions need not be identical. Equal entries are not always repeated.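 Step 1: Grow cells in 96-well plates. Step 2: Expose to compound for 48 hours at 5 concentrations. Step 3: Interpolate endpoints linearly; if unreached, use highest concentration. GI50 is the concentration that inhibits growth by half. TGI denotes the concentration required for complete inhibition of growth.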

The TGI is the concentration at which net growth stops. A low value points to more potent growth arrest. By GI50 is commonly meant the concentration at which growth is held to half of that of the control.

Among the test systems are HOP-62 NSCLC; CCRF-CEM leukemia; NCI-H522 lung; SK-MEL-2 melanoma; OVCAR-5 ovarian; DMS 114 small cell lung; RPMI-8226 leukemia; XF 498 CNS; HCT-15 colon; HS 578T breast.
Holding throughout (assay): DTP human tumour cell line panel, 48 h

`CN(CCN(C)C(=O)CCOS(C)(=O)=O)C(=O)CCOS(C)(=O)=O`: the TGI in the test on HOP-62 NSCLC, with CCRF-CEM leukemia, in the test with NCI-H522 lung, in the test with SK-MEL-2 melanoma, with OVCAR-5 ovarian and in the test on DMS 114 small cell lung was > 100 µM each time. Further, the concentration for total growth inhibition (TGI) in the test with RPMI-8226 leukemia, in the test on XF 498 CNS and in the test on HCT-15 colon was > 100 µM each time.
Turning to `NC1=C(Cl)C(=O)c2ccccc2C1=O`, the TGI with HOP-62 NSCLC was 32 µM; in the test with CCRF-CEM leukemia, 32.5 µM; in the test on NCI-H522 lung, 18.5 µM; in the test with SK-MEL-2 melanoma, > 44 µM; in the test on OVCAR-5 ovarian it was 23.7 µM; in the test on DMS 114 small cell lung it was 13.4 µM. The TGI in the test with RPMI-8226 leukemia is 43.6 µM; in the test on XF 498 CNS it was 24.5 µM; in the test on HCT-15 colon, 12.2 µM.
With `O=CN1CCN(C=S)CC1`, the TGI with HOP-62 NSCLC, in the test on CCRF-CEM leukemia, in the test with NCI-H522 lung, with OVCAR-5 ovarian, in the test on DMS 114 small cell lung and in the test on RPMI-8226 leukemia was > 100 µM throughout. The TGI in the test on XF 498 CNS and with HCT-15 colon was > 100 µM in each case.
For the molecule `NC(=O)c1c2c(cc3c(=O)c4ccccc4[nH]c13)CCCC2`, the TGI with HOP-62 NSCLC is > 100 µM; with CCRF-CEM leukemia, 98.7 µM; in the test with NCI-H522 lung, > 100 µM; with SK-MEL-2 melanoma, > 100 µM; with OVCAR-5 ovarian, > 100 µM; in the test on DMS 114 small cell lung, > 100 µM. Moreover, the figures for the TGI in the test on RPMI-8226 leukemia, in the test on XF 498 CNS and in the test with HCT-15 colon were > 78.7 µM, > 100 µM and > 100 µM, respectively.
As to `O=C(O)c1ccc(C2C3C=CC(C3)C2[N+](=O)[O-])cc1` (stereo unspecified), the TGI with HOP-62 NSCLC, in the test on CCRF-CEM leukemia, in the test on NCI-H522 lung, in the test with SK-MEL-2 melanoma, in the test with DMS 114 small cell lung and with RPMI-8226 leukemia was > 100 µM each time. Besides, the TGI in the test on XF 498 CNS and in the test on HCT-15 colon was > 100 µM each time.
Turning to `C=CCN(CC=C)CC(C(C)=O)C(c1ccccc1)c1c(O)c2ccccc2oc1=O` (stereo unspecified), the TGI in the test on HOP-62 NSCLC, with CCRF-CEM leukemia, with NCI-H522 lung, in the test with SK-MEL-2 melanoma, with OVCAR-5 ovarian and in the test with DMS 114 small cell lung was > 100 µM in each case. Further, the TGI with RPMI-8226 leukemia, in the test with XF 498 CNS and in the test on HCT-15 colon was > 100 µM throughout.
`CC1CC2(CCC1OCc1ccccc1)OCCO2` (stereo unspecified): the TGI with HOP-62 NSCLC, in the test on CCRF-CEM leukemia, in the test on NCI-H522 lung, with SK-MEL-2 melanoma, in the test with DMS 114 small cell lung and in the test with RPMI-8226 leukemia was > 100 µM each time. Further, the TGI in the test on XF 498 CNS and in the test on HCT-15 colon was > 100 µM throughout.
Take `COC(=O)[C@]12CC=C3O[C@@H]4OC5(CCCCC5)O[C@@H]4[C@H]3C1C(=O)C=CC2=O` (stereo partly specified): the TGI in the test with HOP-62 NSCLC amounted to 37.9 µM; with CCRF-CEM leukemia it was 14.3 µM; in the test with HS 578T breast, 78.4 µM; in the test on NCI-H522 lung, 15.4 µM; in the test with SK-MEL-2 melanoma, 48.4 µM; in the test on OVCAR-5 ovarian, 38.8 µM. The TGI was determined as 33.7 µM with DMS 114 small cell lung, 21.6 µM in the test on RPMI-8226 leukemia, 20 µM in the test with XF 498 CNS and 34.2 µM in the test on HCT-15 colon.
As for `Cc1cc(NC(=O)NC(=O)c2ccccc2NC(=O)CN)ccc1Oc1ncc(Br)cn1`, the GI50 in the test with HOP-62 NSCLC is 0.47 µM; in the test on CCRF-CEM leukemia it was 0.0476 µM; in the test with NCI-H522 lung, 0.269 µM and 0.096 µM; in the test with SK-MEL-2 melanoma, 21.2 µM; in the test on OVCAR-5 ovarian it was 0.541 µM; in the test with RPMI-8226 leukemia, 0.306 µM. The TGI is 4.18 µM and 22.3 µM in the test with HOP-62 NSCLC; 4.69 µM in the test with HS 578T breast; 2.24 µM and 0.472 µM in the test on NCI-H522 lung; 9.7 µM and 52.9 µM with SK-MEL-2 melanoma; 43.6 µM and 75.2 µM with OVCAR-5 ovarian; 75 µM with DMS 114 small cell lung. For the same molecule, the TGI was 57.1 µM and > 100 µM in the test with RPMI-8226 leukemia; 75 µM with XF 498 CNS; 42.2 µM in the test with HCT-15 colon.
With `COc1ccc2c(c1)CCCC1C3=NCCC3(C)CSC21` (stereo unspecified), the TGI in the test on CCRF-CEM leukemia, in the test on NCI-H522 lung, in the test on DMS 114 small cell lung, in the test with RPMI-8226 leukemia and with XF 498 CNS was > 100 µM throughout.
Consider `COc1ccccc1NC(=O)CC(=O)NNCC(=O)Nc1nnc(-c2ccccc2)o1`, for which the TGI in the test with HOP-62 NSCLC, in the test with NCI-H522 lung, in the test with SK-MEL-2 melanoma, in the test with OVCAR-5 ovarian, in the test with DMS 114 small cell lung and in the test with RPMI-8226 leukemia was > 100 µM in each case. Also, the TGI in the test on XF 498 CNS and in the test on HCT-15 colon was > 100 µM throughout.
In the case of `Cc1cc(N=C2C=C(Nc3cc(C)on3)C(=O)c3ccccc32)no1`, the TGI was > 100 µM in the test on HOP-62 NSCLC; > 100 µM with CCRF-CEM leukemia; > 100 µM in the test on HS 578T breast; > 100 µM with NCI-H522 lung; 72.5 µM in the test on SK-MEL-2 melanoma; > 100 µM with OVCAR-5 ovarian. In addition, the TGI in the test with DMS 114 small cell lung is 73.7 µM; with RPMI-8226 leukemia, > 100 µM; in the test with XF 498 CNS, > 100 µM; with HCT-15 colon, > 100 µM.
For the molecule `CC1=CC2CC(C)C1(C)CCc1ccoc12` (stereo unspecified), the TGI in the test on HOP-62 NSCLC, in the test on CCRF-CEM leukemia, with SK-MEL-2 melanoma, in the test with OVCAR-5 ovarian, with DMS 114 small cell lung and with RPMI-8226 leukemia was > 100 µM in each case. Besides, the TGI in the test with XF 498 CNS and in the test on HCT-15 colon was > 100 µM in each case.
On to `CC(=O)O[C@H]1CC[C@@]2(C)C(=CC[C@@H]3C2CC[C@]2(C)Nc4[nH]ncc4CC32)C1` (stereo partly specified), for which the TGI with HOP-62 NSCLC is > 100 µM; with CCRF-CEM leukemia it was 40.3 µM; in the test on SK-MEL-2 melanoma, 72.7 µM; in the test with OVCAR-5 ovarian, > 100 µM; with DMS 114 small cell lung it was 34.2 µM; with RPMI-8226 leukemia, 65.9 µM. The TGI stood at 34.2 µM with XF 498 CNS and 32.8 µM in the test on HCT-15 colon.
For `COc1ccc(C(O)/C(=C/n2ccnc2)c2ccccc2)cc1OC` (stereo unspecified), the TGI in the test with HOP-62 NSCLC, with CCRF-CEM leukemia, in the test on SK-MEL-2 melanoma, in the test on OVCAR-5 ovarian, in the test with DMS 114 small cell lung and with RPMI-8226 leukemia was > 100 µM each time. Besides, the TGI in the test on XF 498 CNS and in the test with HCT-15 colon was > 100 µM throughout.
Turning to `CCC[CH2][Sn]1([CH2]CCC)[O]C(=O)CN=Cc2ccccc2[O]1`, the GI50 in the test with HOP-62 NSCLC was 4.01 µM; in the test on NCI-H522 lung, 0.0349 µM; in the test with SK-MEL-2 melanoma it was 0.22 µM; in the test on OVCAR-5 ovarian, 1.63 µM; in the test on DMS 114 small cell lung, 0.134 µM; with RPMI-8226 leukemia, 0.187 µM. Besides, the GI50 in the test on XF 498 CNS was 0.137 µM; in the test with HCT-15 colon, 0.358 µM. For the same molecule, the TGI with HOP-62 NSCLC is > 100 µM; with NCI-H522 lung it was 0.173 µM; with SK-MEL-2 melanoma, 0.555 µM; with OVCAR-5 ovarian it was 2.98 µM; in the test on DMS 114 small cell lung, 0.295 µM; in the test on RPMI-8226 leukemia, 0.607 µM. The results for the TGI in the test on XF 498 CNS and in the test with HCT-15 colon were 0.282 µM and 1.56 µM, respectively.
Take `Cc1c(O)c(=O)ccn1CCO`: the TGI with HOP-62 NSCLC, in the test on CCRF-CEM leukemia, with NCI-H522 lung, in the test on SK-MEL-2 melanoma, in the test with OVCAR-5 ovarian and with DMS 114 small cell lung was > 100 µM throughout. Also, the concentration for total growth inhibition (TGI) with RPMI-8226 leukemia, in the test on XF 498 CNS and in the test with HCT-15 colon was > 100 µM throughout.
In the case of `Nc1nc(SCCC/C=C/I)nc2c1ncn2C1OC(CO)C(O)C1O` (stereo unspecified), the TGI in the test with HOP-62 NSCLC, in the test with CCRF-CEM leukemia, in the test with NCI-H522 lung, in the test on SK-MEL-2 melanoma, in the test on OVCAR-5 ovarian and with DMS 114 small cell lung was > 202 µM in each case. For the same molecule, the TGI in the test on RPMI-8226 leukemia, in the test on XF 498 CNS and with HCT-15 colon was > 202 µM in each case.
